The text below walks through data of PubChem BioAssay AID1645867 (Buhrlage Lab, Dana-Farber Cancer Institute and Novartis …, 2021).

Calls of active or inactive are those of the source. How the calls were made is not given here. A value given as a limit tells only on which side of the number the result lay.

Sequence of Ubiquitin carboxyl-terminal hydrolase isozyme L1 (Homo sapiens) (P09936 whole entry, looked up): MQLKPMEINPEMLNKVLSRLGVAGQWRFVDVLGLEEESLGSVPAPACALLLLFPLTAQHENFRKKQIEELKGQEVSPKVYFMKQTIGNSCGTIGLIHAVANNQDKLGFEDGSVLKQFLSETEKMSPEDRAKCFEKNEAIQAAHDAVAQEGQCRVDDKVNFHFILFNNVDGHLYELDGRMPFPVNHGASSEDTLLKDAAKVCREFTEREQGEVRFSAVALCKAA

This assay has as its target Ubiquitin carboxyl-terminal hydrolase isozyme L1 (Homo sapiens) (UniProt P09936). The assay can be described thus: biochemical concentration-response of UCH-L1 DUB inhibitors, hit verification (AID 1645867). The settings on record: recombinant UCHL1 deubiquitinase activity assay.
Take `Cc1ccc(NC(=O)Cc2nnc3cc(-c4nc(C)no4)ccn23)cc1`: the IC50 – broadly, the concentration at which inhibition is half-maximal – is > 25 µM (inactive).

In the case of `N#Cc1ccc(COC(=O)C(O)(c2ccccc2)c2ccccc2)cc1`, the IC50 was > 25 µM (inactive). As for `CC(C)C(=O)Nc1nc2cc(NS(=O)(=O)c3ccccc3)ccc2s1`, the figure is > 25 µM (inactive). Take `COc1ccc(Cl)cc1NC(=O)CSc1ncnc2nc[nH]c12`: the IC50 was > 25 µM (inactive). As for `Fc1ccc(Nc2nc(CN3CCOCC3)nc3sc4c(c23)CCC4)cc1Cl`, the IC50 was > 25 µM (inactive). As for `O=C(Cn1cccc(-c2nc(-c3ccccc3)no2)c1=O)Nc1ccccc1F`, the figure is > 25 µM (inactive). As for `CC(C)=CCC(O)C1=CC(=O)c2c(O)ccc(O)c2C1=O` (stereo not drawn), the figure is 3.09 µM. As for `Cc1ccc(C(=O)c2cn(CC(=O)Nc3ccc4c(c3)OCO4)c3ccccc3c2=O)cc1`, the figure is > 25 µM (inactive); as for `COc1ccc(OC)c(-c2cn3ccn(-c4ccc(F)c(Cl)c4)c(=O)c3n2)c1`, > 25 µM (inactive); as for `CSc1ccc([C@H]2[C@@H](C(=O)O)c3ccccc3C(=O)N2Cc2ccc(F)cc2)cc1`, > 25 µM (inactive). Consider `O=C(NCCc1nc2ccccc2n1Cc1ccccc1F)c1ccco1`, for which the IC50 was > 25 µM (inactive). Next, `COC(=O)Nc1cccn(Cc2c(Cl)cccc2Cl)c1=O`: > 25 µM (inactive); `Fc1cc(F)c2[nH]cc(-c3nnnn3-c3ccc4ccccc4c3)c2c1`: > 25 µM (inactive). For `CN(c1ccccc1)S(=O)(=O)c1ccc(C(=O)Nc2cccc(C#N)c2)cc1`, the IC50 is > 25 µM (inactive). For the compound `Cc1cc(NC(=O)c2cc(-c3cccnc3)n[nH]2)ccc1Br`, the IC50 was > 25 µM (inactive). Next, `O=C(Nc1cccc(Br)c1)c1cc(-c2cccnc2)n[nH]1`: > 25 µM (inactive); `CCCC1(c2ccccc2)NC(=O)N(Cc2ccc(Cl)cc2)C1=O` (stereo not drawn): > 25 µM (inactive). As for `O=C1CSC(c2ccc(F)cc2)c2c(n(C3CCCCCC3)[nH]c2=O)N1` (stereo not drawn), the figure is > 25 µM (inactive). As for `O=C(Nc1c(C(=O)N2CCCCCC2)oc2ccccc12)C1CCCC1`, the figure is > 25 µM (inactive); as for `COc1ccc(C(=O)Nc2nnc(S(=O)(=O)N3CCCc4ccccc43)s2)cc1OC`, > 25 µM (inactive); as for `O=C(CSc1nnc(-c2cccnc2)n1-c1ccccc1)c1cccc([N+](=O)[O-])c1`, > 25 µM (inactive).

For the compound `CCOc1ccc(-n2ccnc(SCC(=O)Nc3ccccc3F)c2=O)cc1`, the IC50 was > 25 µM (inactive).

Consider `Cc1ccc(C2CC(=O)C3=C(C2)Nc2ccccc2N(C(=O)c2ccccc2)C3c2ccccc2)cc1` (stereo not drawn), for which the IC50 was > 25 µM (inactive).

As to `Cn1cc(NC(=O)Nc2cccc(C(F)(F)F)c2)c2ccccc2c1=O`, the IC50 is > 25 µM (inactive). On to `COc1cc(NC(=O)c2ccc3c(c2)OCO3)ccc1-c1cc2ccccc2oc1=O`, for which the IC50 is > 25 µM (inactive). As for `O=S1(=O)CCN(CC2CCCO2)c2c(Oc3ccccc3)nc(F)c(Cl)c21` (stereo not drawn), the figure is > 25 µM (inactive). With `O=c1ccc(-c2cc3ccccc3o2)cn1Cc1ccccc1-c1ccccc1`, the IC50 was 12.7 µM.

As for `O=C(Cn1c(=O)c2ccccc2c2ccccc21)Nc1ccc2c(c1)OCO2`, the IC50 is > 25 µM (inactive). Consider `CCOC(=O)c1ccc(Oc2sccc2[N+](=O)[O-])cc1`, for which the IC50 is > 25 µM (inactive).

For `Cc1ccc(C(=O)N[C@@H](Cc2ccccc2)C(=O)N2CCC3(CC2)NCCc2[nH]cnc23)cc1C`, the IC50 was > 25 µM (inactive). For the compound `CC(C)c1ccc(C2CC(=O)c3cn[nH]c3C2)cc1` (stereo not drawn), the IC50 is > 25 µM (inactive).

Consider `Cc1ccc(Cn2c(C(=O)O)c(CNCc3cccnc3)c3ccccc32)cc1`, for which the IC50 was > 25 µM (inactive). As for `O=C(Nc1nc2c(s1)CN(C(=O)c1cc(-c3ccco3)on1)CC2)C1CCCO1` (stereo not drawn), the figure is > 25 µM (inactive); as for `Cc1sc(N)nc1-c1ccc(C(C)(C)C)cc1`, > 25 µM (inactive); as for `Cc1nn(-c2ccccc2)c(C)c1S(=O)(=O)N1CCN(c2ccccn2)CC1`, > 25 µM (inactive). As for `Cn1c2ccccc2c(=O)c2c(=O)n(-c3cccc(Cl)c3)c(-c3cccs3)nc21`, the IC50 was > 25 µM (inactive). As for `Cc1ccc(NC(=O)Nc2ccc(C)n(CC(=O)Nc3cccc(C)c3)c2=O)cc1`, the figure is > 25 µM (inactive); as for `N#CCCN(C(=O)c1cc2c(s1)-c1ccccc1OC2)c1ccccc1`, > 25 µM (inactive); as for `Cc1ccc2c(c1)c(=O)c(C(=O)c1ccccc1)cn2CC(=O)Nc1ccc2c(c1)OCO2`, > 25 µM (inactive).

Consider `Cc1nc(C(=O)NC2(O)C(=O)c3ccccc3C2=O)cs1`, for which the IC50 was 20.7 µM. Next, `Cc1ccc(NC(=O)Nc2ccc(C)n(CC(=O)Nc3ccc(C)c(C)c3)c2=O)cc1`: > 25 µM (inactive); `COc1ccc2nc(N3CCN(C(=O)C4CCCCC4)CC3)sc2c1`: > 25 µM (inactive); `Cc1cc(C)cc(NC(=O)C2C3C=CC4(O3)C2C(=O)N(C2CCCCC2)C4C(=O)NC2CCCCC2)c1` (stereo not drawn): > 25 µM (inactive). As for `CCc1cccc(C)c1NC(=O)Cn1nc2ccc(C(=O)NCc3ccccc3)cn2c1=O`, the figure is > 25 µM (inactive).

On to `O=C(O)c1ccc(Cl)c(NC(=O)C2COc3ccccc3O2)c1` (stereo not drawn), for which the IC50 was > 25 µM (inactive). As to `O=C(COc1ccc(Cl)cc1Cl)Nc1ccccc1-c1nc2ccccc2[nH]1`, the IC50 was > 25 µM (inactive). As for `C/C=C/C=C/[C@@H]1Cc2cc(O)cc(O)c2O1`, the figure is 10.9 µM.

For the compound `CCc1ccc(NC(=O)C2CCN(c3nc4nc[nH]c(=O)c4s3)CC2)cc1`, the IC50 was > 25 µM (inactive). Next, `Cc1nn(-c2ccc(Cl)cc2)c2[nH]c(=O)c(CNc3ccc4c(c3)OCCO4)cc12`: > 25 µM (inactive); `Cc1ccc(C)c(Cn2cnc3c(nnn3-c3cccc(F)c3)c2=O)c1`: > 25 µM (inactive); `COc1ccc(-c2noc(CN3CCCC3c3cnn(C)c3)n2)cc1` (stereo not drawn): > 25 µM (inactive).

Regarding `COc1ccc(-c2cc3nc([C@H](C)NC(=O)COc4ccccc4F)nn3cn2)cc1`, the IC50 was > 25 µM (inactive). For `Cc1ccc(CNC(=O)Cn2c(=O)n(CCCC(=O)NCc3ccc(F)cc3)c(=O)c3ccccc32)cc1`, the IC50 was > 25 µM (inactive).
